# Experiments:
# [1] = molecular target: T1, 5-hydroxytryptamine receptor 1A (Homo sapiens) (UniProt P08908); test: Selectivity interaction (GPCR panel (PDSP screen)) EUB0001492b HTR1A; conditions: at 10 µM
# T1 sequence (whole entry): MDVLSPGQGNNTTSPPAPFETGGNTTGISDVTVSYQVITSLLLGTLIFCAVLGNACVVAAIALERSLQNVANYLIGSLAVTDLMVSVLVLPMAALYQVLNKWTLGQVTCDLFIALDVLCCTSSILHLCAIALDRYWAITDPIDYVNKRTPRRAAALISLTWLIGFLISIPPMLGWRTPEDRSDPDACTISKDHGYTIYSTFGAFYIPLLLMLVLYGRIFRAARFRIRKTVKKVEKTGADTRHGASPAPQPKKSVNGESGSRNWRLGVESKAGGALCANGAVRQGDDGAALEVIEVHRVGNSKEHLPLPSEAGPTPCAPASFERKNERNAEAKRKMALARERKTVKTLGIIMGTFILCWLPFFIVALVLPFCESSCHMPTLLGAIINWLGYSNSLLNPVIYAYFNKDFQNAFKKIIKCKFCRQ
# [2] = molecular target: 5-hydroxytryptamine receptor 7 (Homo sapiens) (UniProt P34969); test: Selectivity interaction (GPCR panel (PDSP screen)) EUB0001492b HTR7; conditions: at 10 µM
# [3] = molecular target: Muscarinic acetylcholine receptor M3 (Homo sapiens, UniProt P20309); test: Selectivity interaction (GPCR panel (PDSP screen)) EUB0001492b CHRM3; conditions: at 10 µM
# [4] = molecular target: T2, 4-aminobutyrate aminotransferase, mitochondrial (Homo sapiens, UniProt P80404); test: (§1) Selectivity interaction (GPCR panel (PDSP screen)) EUB0001492b ABAT
# [5] = molecular target: Beta-3 adrenergic receptor (Homo sapiens) (UniProt P13945); test: Selectivity interaction (GPCR panel (PDSP screen)) EUB0001492b ADRB3; conditions: at 10 µM
# [6] = molecular target: D(3) dopamine receptor (Homo sapiens, UniProt P35462); test: Selectivity interaction (GPCR panel (PDSP screen)) EUB0001492b DRD3; conditions: at 10 µM
# [7] = molecular target: T3, Alpha-2C adrenergic receptor (Homo sapiens) (UniProt P18825); test: Selectivity interaction (GPCR panel (PDSP screen)) EUB0001492b ADRA2C; conditions: at 10 µM
# T3 sequence (whole entry): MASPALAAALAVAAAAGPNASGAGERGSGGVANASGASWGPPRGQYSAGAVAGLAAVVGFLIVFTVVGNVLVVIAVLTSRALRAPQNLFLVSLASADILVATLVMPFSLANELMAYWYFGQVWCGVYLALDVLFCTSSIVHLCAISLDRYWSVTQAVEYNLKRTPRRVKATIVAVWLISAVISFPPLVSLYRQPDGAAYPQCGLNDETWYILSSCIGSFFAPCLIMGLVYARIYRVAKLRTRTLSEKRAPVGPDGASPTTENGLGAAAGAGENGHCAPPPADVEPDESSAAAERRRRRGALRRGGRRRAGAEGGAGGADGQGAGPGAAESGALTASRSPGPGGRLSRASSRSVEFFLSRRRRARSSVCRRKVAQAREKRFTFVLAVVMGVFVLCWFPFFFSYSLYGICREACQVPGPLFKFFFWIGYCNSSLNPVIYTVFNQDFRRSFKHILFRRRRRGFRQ
# [8] = molecular target: 5-hydroxytryptamine receptor 1D (Homo sapiens) (UniProt P28221); test: Selectivity interaction (GPCR panel (PDSP screen)) EUB0001492b HTR1D; conditions: at 10 µM
# [9] = molecular target: D(2) dopamine receptor (Homo sapiens, UniProt P14416); test: Selectivity interaction (GPCR panel (PDSP screen)) EUB0001492b DRD2; conditions: at 10 µM
# [10] = molecular target: T4, Alpha-1A adrenergic receptor (Homo sapiens) (UniProt P35348); test: Selectivity interaction (GPCR panel (PDSP screen)) EUB0001492b ADRA1A; conditions: at 10 µM
# T4 sequence (whole entry): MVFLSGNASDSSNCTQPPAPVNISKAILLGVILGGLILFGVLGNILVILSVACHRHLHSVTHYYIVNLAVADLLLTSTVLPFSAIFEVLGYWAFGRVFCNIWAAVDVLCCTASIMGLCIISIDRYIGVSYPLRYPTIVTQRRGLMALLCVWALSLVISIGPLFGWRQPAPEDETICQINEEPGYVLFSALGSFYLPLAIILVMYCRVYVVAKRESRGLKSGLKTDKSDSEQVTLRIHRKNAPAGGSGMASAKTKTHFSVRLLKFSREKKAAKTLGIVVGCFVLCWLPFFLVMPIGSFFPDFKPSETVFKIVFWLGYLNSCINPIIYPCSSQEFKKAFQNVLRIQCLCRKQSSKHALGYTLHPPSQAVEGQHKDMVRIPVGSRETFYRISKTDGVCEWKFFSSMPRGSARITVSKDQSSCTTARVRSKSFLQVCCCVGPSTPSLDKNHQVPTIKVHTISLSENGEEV
# [11] = molecular target: T2, 4-aminobutyrate aminotransferase, mitochondrial; test: as §1; conditions: at 10 µM
# [12] = molecular target: Cyclin-G-associated kinase (Homo sapiens, UniProt O14976); test: Selectivity interaction (Kinase panel (enzymatic assay, literature)) EUB0001492b GAK
# [13] = molecular target: Interleukin-1 receptor-associated kinase 3 (Homo sapiens, UniProt Q9Y616); test: Selectivity interaction (NanoBRET assay (in HEK293T cells)) EUB0001492b IRAK3; type: cell-based, HEK-293T
# [14] = molecular target: D(4) dopamine receptor (Homo sapiens) (UniProt P21917); test: Selectivity interaction (GPCR panel (PDSP screen)) EUB0001492b DRD4; conditions: at 10 µM
# [15] = molecular target: AP2-associated protein kinase 1 (Homo sapiens, UniProt Q2M2I8); test: Selectivity interaction (Kinase panel (enzymatic assay, literature)) EUB0001492b AAK1
# [16] = molecular target: T5, Gamma-aminobutyric acid receptor subunit alpha-1 (Homo sapiens) (UniProt P14867); test: Selectivity interaction (GPCR panel (PDSP screen)) EUB0001492b GABRA1; conditions: at 10 µM
# T5 sequence (whole entry): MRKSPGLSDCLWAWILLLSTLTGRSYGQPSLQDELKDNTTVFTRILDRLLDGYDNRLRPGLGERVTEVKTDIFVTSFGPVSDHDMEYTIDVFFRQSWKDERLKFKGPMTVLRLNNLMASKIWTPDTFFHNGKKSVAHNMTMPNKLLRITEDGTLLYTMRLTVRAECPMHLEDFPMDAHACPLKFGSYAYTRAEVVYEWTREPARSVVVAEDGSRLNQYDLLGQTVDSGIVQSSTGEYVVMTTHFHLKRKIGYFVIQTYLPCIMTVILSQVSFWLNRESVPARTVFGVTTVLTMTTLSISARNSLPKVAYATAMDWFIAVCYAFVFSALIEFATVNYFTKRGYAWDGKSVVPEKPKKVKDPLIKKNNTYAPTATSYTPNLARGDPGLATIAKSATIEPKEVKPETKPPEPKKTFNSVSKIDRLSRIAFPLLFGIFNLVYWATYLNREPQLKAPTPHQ
# [17] = molecular target: D(1A) dopamine receptor (Homo sapiens, UniProt P21728); test: Selectivity interaction (GPCR panel (PDSP screen)) EUB0001492b DRD1; conditions: at 10 µM
# [18] = molecular target: Alpha-1D adrenergic receptor (Homo sapiens) (UniProt P25100); test: Selectivity interaction (GPCR panel (PDSP screen)) EUB0001492b ADRA1D; conditions: at 10 µM
# [19] = molecular target: Death-associated protein kinase 1 (Homo sapiens, UniProt P53355); test: Selectivity interaction (KinomeScan (DiscoverX, competition-binding assay)) EUB0001547a DAPK1
# [20] = molecular target: Serine/threonine-protein kinase 17B (Homo sapiens, UniProt O94768); test: Selectivity interaction (KinomeScan (competition-binding assay, DiscoverX)) EUB0001547a STK17B
# [21] = molecular target: Homeodomain-interacting protein kinase 3 (Homo sapiens, UniProt Q9H422); test: Selectivity interaction (KinomeScan (DiscoverX, competition-binding assay)) EUB0001547a HIPK3
# [22] = molecular target: Calcium/calmodulin-dependent protein kinase type IV (Homo sapiens, UniProt Q16566); test: Selectivity interaction (KinomeScan (DiscoverX, competition-binding assay)) EUB0001547a CAMK4
# [23] = molecular target: Mitogen-activated protein kinase 15 (Homo sapiens, UniProt Q8TD08); test: Selectivity interaction (KinomeScan (DiscoverX, competition binding assay)) EUB0001547a MAPK15
# [24] = molecular target: Cyclin-dependent kinase 7 (Homo sapiens, UniProt P50613); test: Selectivity interaction (KinomeScan (DiscoverX, competition-binding assay)) EUB0001547a CDK7
# [25] = molecular target: T6, Mitotic checkpoint serine/threonine-protein kinase BUB1 (Homo sapiens, UniProt O43683); test: Selectivity interaction (Kinase panel (literature)) EUB0001549a BUB1
# [26] = molecular target: RAC-gamma serine/threonine-protein kinase (Homo sapiens, UniProt Q9Y243); test: Selectivity interaction (NanoBRET assay (HEK293T cells)) EUB0001563a AKT3; type: cell-based; conditions: hek-293t
# [27] = molecular target: 3',5'-cyclic-AMP phosphodiesterase 4A (Homo sapiens, UniProt P27815); test: Selectivity interaction (Eurofins-Panlabs Screen) EUB0001548a PDE4A; conditions: at 10 µM
# [28] = molecular target: Sodium channel protein type 2 subunit alpha (Homo sapiens) (UniProt Q99250); test: Selectivity interaction (Eurofins-Panlabs Screen) EUB0001548a SCN2A; conditions: at 10 µM
# [29] = molecular target: Prostaglandin G/H synthase 1 (Homo sapiens) (UniProt P23219); test: Selectivity interaction (Eurofins-Panlabs Screen) EUB0001548a PTGS1; conditions: at 10 µM
# [30] = molecular target: Serine/threonine-protein kinase 10 (Homo sapiens) (UniProt O94804); test: Selectivity interaction (KinomeScan (DiscoverX)) EUB0001548a STK10; conditions: at 1 µM
# [31] = molecular target: Sodium/nucleoside cotransporter 1 (Homo sapiens) (UniProt O00337); test: Selectivity interaction (Eurofins-Panlabs Screen) EUB0001548a SLC28A1; conditions: at 10 µM
# [32] = molecular target: Sodium/nucleoside cotransporter 1 (Homo sapiens, UniProt O00337); test: Selectivity interaction (Eurofins-Panlabs Screen (enzymatic assay)) EUB0001548a SLC28A1
# [33] = molecular target: T6, Mitotic checkpoint serine/threonine-protein kinase BUB1; test: Selectivity interaction (TR-FRET kinase assay ) EUB0001548a BUB1
# [34] = molecular target: Adenosine receptor A2a (Homo sapiens, UniProt P29274); test: Selectivity interaction (Eurofins-Panlabs Screen) EUB0001548a ADORA2A; conditions: at 10 µM
# [35] = molecular target: T7, Dual specificity tyrosine-phosphorylation-regulated kinase 1B (Homo sapiens, UniProt Q9Y463); test: Selectivity interaction (Kinome Scan (DiscoverX, competition binding assay)) EUB0001548a DYRK1B
# Target sequence in this assay (Q9Y463 whole entry): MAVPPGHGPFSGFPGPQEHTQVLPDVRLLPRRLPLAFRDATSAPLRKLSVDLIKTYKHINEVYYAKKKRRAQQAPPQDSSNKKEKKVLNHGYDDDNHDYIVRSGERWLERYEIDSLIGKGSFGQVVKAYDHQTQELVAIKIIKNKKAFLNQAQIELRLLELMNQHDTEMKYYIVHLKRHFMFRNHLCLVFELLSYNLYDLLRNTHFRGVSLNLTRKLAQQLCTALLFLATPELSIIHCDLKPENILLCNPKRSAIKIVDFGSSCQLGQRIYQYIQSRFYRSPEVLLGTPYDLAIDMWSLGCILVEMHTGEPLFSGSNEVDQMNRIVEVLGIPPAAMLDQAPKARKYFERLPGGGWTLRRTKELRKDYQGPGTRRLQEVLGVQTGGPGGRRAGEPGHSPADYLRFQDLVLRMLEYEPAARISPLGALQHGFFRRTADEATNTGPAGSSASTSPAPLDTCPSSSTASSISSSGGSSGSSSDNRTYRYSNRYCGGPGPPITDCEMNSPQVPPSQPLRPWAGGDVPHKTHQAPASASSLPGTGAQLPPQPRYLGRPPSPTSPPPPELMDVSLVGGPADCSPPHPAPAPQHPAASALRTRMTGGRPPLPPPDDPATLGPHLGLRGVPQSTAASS
# [36] = molecular target: T5, Gamma-aminobutyric acid receptor subunit alpha-1 (Homo sapiens); test: Selectivity interaction (Eurofins-Panlabs Screen) EUB0001548a GABRA1; conditions: at 10 µM
# [37] = molecular target: T6, Mitotic checkpoint serine/threonine-protein kinase BUB1; test: Selectivity interaction (KinomeScan (DiscoverX, competition binding assay)) EUB0001548a BUB1
# [38] = molecular target: T7, Dual specificity tyrosine-phosphorylation-regulated kinase 1B; test: Selectivity interaction (KinomeScan (DiscoverX)) EUB0001548a DYRK1B; conditions: at 1 µM
# Target sequence in this assay (Q9Y463 whole entry, looked up): as the sequence (Q9Y463 whole entry) above
# T6 sequence (O43683 whole entry): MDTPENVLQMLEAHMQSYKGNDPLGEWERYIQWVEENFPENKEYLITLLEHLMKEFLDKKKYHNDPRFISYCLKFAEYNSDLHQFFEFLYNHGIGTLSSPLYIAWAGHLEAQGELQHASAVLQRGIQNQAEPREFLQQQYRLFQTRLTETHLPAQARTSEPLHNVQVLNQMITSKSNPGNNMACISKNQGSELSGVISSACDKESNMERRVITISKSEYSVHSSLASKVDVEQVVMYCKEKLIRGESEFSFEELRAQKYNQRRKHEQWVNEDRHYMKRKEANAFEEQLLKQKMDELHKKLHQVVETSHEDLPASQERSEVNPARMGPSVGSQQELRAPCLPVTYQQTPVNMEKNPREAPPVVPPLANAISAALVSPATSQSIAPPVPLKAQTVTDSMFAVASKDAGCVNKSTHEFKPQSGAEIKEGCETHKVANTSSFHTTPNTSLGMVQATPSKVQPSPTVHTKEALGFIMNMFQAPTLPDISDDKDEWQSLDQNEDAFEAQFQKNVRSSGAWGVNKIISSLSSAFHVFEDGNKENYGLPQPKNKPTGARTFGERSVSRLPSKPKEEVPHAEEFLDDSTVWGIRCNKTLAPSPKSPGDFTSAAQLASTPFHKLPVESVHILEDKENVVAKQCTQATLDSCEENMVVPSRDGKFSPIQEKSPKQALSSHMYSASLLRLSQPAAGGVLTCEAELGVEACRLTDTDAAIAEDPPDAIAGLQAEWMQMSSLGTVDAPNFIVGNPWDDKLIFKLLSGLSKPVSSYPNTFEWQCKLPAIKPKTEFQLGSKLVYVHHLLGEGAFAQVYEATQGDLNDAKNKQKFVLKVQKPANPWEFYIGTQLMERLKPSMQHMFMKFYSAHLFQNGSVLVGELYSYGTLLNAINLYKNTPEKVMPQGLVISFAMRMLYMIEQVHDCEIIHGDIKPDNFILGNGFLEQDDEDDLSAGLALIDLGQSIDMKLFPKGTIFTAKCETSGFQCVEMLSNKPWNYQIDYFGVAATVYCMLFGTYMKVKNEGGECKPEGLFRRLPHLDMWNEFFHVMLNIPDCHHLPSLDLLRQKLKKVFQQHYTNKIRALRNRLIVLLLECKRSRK
# T2 sequence (P80404 whole entry): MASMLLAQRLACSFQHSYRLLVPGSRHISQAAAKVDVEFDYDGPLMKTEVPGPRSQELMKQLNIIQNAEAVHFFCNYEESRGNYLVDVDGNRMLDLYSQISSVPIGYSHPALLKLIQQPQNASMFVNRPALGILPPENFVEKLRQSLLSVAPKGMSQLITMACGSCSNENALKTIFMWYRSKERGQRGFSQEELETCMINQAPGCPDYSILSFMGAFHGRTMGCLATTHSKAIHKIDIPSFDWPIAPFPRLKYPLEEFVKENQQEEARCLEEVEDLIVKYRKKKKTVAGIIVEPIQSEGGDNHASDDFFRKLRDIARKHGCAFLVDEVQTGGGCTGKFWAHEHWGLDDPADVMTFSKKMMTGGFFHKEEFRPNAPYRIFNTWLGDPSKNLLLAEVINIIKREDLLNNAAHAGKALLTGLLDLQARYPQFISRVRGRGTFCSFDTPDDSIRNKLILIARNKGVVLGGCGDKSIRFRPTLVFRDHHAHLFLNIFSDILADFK
# Chain of 3',5'-cyclic-AMP phosphodiesterase 4A (P27815 whole entry): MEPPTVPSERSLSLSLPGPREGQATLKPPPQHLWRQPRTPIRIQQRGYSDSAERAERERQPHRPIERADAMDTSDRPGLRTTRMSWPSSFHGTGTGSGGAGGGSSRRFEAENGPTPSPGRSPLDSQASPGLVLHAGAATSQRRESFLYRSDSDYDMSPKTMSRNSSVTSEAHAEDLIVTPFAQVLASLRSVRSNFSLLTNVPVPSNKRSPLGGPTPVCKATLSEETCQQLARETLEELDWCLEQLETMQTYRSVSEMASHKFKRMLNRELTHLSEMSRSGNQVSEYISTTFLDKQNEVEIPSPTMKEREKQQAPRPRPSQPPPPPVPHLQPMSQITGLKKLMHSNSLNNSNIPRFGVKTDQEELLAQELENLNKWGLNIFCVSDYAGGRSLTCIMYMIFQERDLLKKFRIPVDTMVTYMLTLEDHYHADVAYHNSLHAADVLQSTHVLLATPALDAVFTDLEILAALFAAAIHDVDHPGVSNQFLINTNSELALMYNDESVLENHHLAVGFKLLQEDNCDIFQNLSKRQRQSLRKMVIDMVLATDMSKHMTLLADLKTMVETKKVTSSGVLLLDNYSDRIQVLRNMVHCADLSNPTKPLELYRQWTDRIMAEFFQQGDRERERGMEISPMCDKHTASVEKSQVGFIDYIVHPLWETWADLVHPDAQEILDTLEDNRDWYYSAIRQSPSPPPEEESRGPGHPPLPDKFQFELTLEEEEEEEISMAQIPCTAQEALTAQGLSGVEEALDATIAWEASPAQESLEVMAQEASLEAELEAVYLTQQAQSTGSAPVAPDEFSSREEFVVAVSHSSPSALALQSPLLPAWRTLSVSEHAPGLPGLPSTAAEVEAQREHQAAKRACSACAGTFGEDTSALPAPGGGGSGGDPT
# Chain of Beta-3 adrenergic receptor (Homo sapiens) (P13945 whole entry, looked up): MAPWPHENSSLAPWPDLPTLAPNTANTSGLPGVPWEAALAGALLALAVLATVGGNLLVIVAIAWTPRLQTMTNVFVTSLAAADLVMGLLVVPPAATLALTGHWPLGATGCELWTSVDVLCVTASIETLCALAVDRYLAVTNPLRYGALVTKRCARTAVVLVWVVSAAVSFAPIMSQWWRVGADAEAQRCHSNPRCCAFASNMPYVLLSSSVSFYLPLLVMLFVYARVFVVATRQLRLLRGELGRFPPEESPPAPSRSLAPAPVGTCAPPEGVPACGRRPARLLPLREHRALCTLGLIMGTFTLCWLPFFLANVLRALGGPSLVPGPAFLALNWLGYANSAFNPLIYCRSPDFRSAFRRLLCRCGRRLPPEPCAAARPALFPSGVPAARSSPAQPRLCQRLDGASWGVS
# Chain of Sodium/nucleoside cotransporter 1 (Homo sapiens) (O00337 whole entry): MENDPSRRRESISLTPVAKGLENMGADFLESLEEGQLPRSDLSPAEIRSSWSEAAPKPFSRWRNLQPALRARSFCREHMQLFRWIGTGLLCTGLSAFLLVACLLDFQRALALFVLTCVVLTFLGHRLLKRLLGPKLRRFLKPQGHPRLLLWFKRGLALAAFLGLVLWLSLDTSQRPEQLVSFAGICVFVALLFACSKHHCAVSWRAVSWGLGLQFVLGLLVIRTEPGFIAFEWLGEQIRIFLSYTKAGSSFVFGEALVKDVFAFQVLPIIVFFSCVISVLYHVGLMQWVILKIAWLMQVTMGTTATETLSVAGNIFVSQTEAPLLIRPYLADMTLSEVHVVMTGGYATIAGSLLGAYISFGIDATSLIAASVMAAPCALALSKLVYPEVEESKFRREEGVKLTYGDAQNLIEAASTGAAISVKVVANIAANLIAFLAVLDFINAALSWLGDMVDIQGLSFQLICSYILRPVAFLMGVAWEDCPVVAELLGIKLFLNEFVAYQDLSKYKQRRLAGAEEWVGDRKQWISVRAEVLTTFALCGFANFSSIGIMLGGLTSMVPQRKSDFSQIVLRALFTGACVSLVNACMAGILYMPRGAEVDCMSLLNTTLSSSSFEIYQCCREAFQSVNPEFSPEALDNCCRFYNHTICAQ
# Chain of Sodium/nucleoside cotransporter 1 (O00337 whole entry): as above
compound,measurement,setting,value
CCC(F)(F)c1cc(N2CCC(S(C)(=O)=O)CC2)nc2sc(C(N)=O)c(N)c12 [BI-605906],% of inhibition,[1],14.4%
same,% of inhibition,[2],13.7%
same,% of inhibition,[3],21.1%
same,Ki,[4],2620 nM
same,% of inhibition,[5],18%
same,% of inhibition,[6],51.5%
same,% of inhibition,[7],13.7%
same,% of inhibition,[8],26.9%
same,% of inhibition,[9],69.8%
same,% of inhibition,[10],18.9%
same,% of inhibition,[11],51.8%
same,IC50,[12],272 nM
same,IC50,[13],> 20 µM
same,% of inhibition,[14],44.6%
same,IC50,[15],188 nM
same,% of inhibition,[16],34.5%
same,% of inhibition,[17],25.7%
same,% of inhibition,[18],36.7%
N[C@@H]1CCCN(c2c(/C=C3\SC(=O)NC3=O)cccc2-c2ccccc2)C1,Kd,[19],420 nM
same,Kd,[20],930 nM
same,Kd,[21],480 nM
same,Kd,[22],360 nM
same,Kd,[23],5 nM
same,Kd,[24],38 nM
COc1ccccc1Nc1nc(-c2nn(Cc3c(F)cc(OCCCO)cc3F)c3ccccc23)ncc1OC,IC50,[25],> 20 µM
C=CC(=O)Nc1ccc2[nH]c(=O)n(C3CCN(Cc4ccc(-c5ccc6c(c5)NC(=O)CO6)cc4)CC3)c2c1 [RL2578],IC50,[26],18 µM
COc1cnccc1Nc1nc(-c2nn(Cc3c(F)cc(OCCO)cc3F)c3ccccc23)ncc1OC,% of inhibition,[27],52%
same,% of inhibition,[28],53%
same,% of inhibition,[29],54%
same,% of control,[30],0.6%
same,% of inhibition,[31],71%
same,IC50,[32],370 nM
same,IC50,[33],4.3 nM
same,% of inhibition,[34],67%
same,Kd,[35],> 30 µM
same,% of inhibition,[36],60%
same,IC50,[37],3.3 nM
same,% of control,[38],6.7%
